Assay results taken from article PMC11008251, “Distribution of 2,2′,5,5′-Tetrachlorobiphenyl (PCB52) Metabolites in Adolescent Rats after Acute Nose-Only Inhalation Exposure” (Environmental Science & Technology, 2024).
Where two headings read alike, the source gives them in different places.

Experiments:
[1] = PCB52 and monohydroxylated metabolite tissue levels by GC-MS/MS after 4 h nose-only inhalation; format: in vivo, Sprague–Dawley rats; conditions: for concentration at 4 h: Sprague-Dawley, rat, inhaled, mean
Experimental: PCB52 vapor for the animal exposure was generated using a published protocol.[12] Briefly, 450 g of 3 mm diameter glass beads were added to a solution of 1.5 g of PCB52 in dichloromethane. The glass beads were then coated with PCB52 by evaporating dichloromethane in a water bath at 29 °C using a rotary evaporator (Buchi Rotavapor R-200, New Castle, DE) under reduced pressure. For the animal exposures, high-efficiency particulate air (HEPA)-filtered laboratory air was passed through the PCB52-coated glass beads at a flow rate of 12 L/min to expose animals to PCB52 vapor in a nose-only exposure apparatus (Figure 1A). The flask of PCB52-coated beads and mixing chamber were kept at 25.0 °C using a precision water bath to facilitate the volatilization of PCB52. The PCB52-laden air was passed through a mixing chamber and distributed to the nose-only inhalation apparatus at a flow rate of 4 L/min per tower (n = 3) and a sampling cartridge filled with 10 g of Amberlite XAD-2 polymeric absorbent resin (Sigma-Aldrich, St. Louis, MO) at a flow rate of 2 L/min. The specified flow rates were generated using flow meter-regulated pumps. The XAD-2 cartridge was used to capture PCB52 vapor to characterize the exposure atmosphere. A sham exposure group was exposed in parallel to HEPA-filtered clean air in an identical nose-only exposure system in an adjacent lab with no supplied PCB52.
(§1) The Institutional Animal Care and Use Committee of the University of Iowa approved all of the animal protocols. Animals were housed in a temperature- and humidity-controlled room (21 °C, 55% relative humidity) with a 12 h light/dark cycle in an Association for the Assessment and Accreditation of Laboratory Animal Care (AAALAC) accredited animal facility. Animals were provided with food (sterile Teklad 5% stock diet, Harlan, Madison, WI) and water ad libitum throughout the study. Thirty-six male and female Sprague–Dawley rats (7 weeks of age; Charles River, Wilmington, MA) were allowed to acclimate to the animal facility for 8 days after arrival. Prior to exposure, rats (227 ± 27 and 197 ± 13 g, male and female, respectively) were randomly assigned to the exposure groups (n = 6 per group) using a random number generated (Excel, version 2307). Animals were simultaneously exposed for 4 h to a low or high concentration of PCB52-laden per sex) or filtered lab air (Figure 1A). Exposure duration was limited to 4 h along with scheduled training days (30 min at 55 days of age and 2 h at 56 days of age) to acclimate animals and minimize stress. […] Animal exposure occurred for 4 h at 57 days of age. Rats are considered adolescents at this age.[38] Serum was collected immediately after the animals were removed from the nose-only apparatus by cardiac puncture under isoflurane anesthesia. Rats were perfused with saline, and organs were excised and stored at −80 °C. Body and organ weights, including brain, lungs, and thymus, were not altered by PCB52 inhalation regardless of sex or exposure (Tables S2 and S3).
PCB52 and its hydroxylated metabolites were extracted from tissues, serum, and cecum and intestinal content using a published protocol;[40],[41] see the Supporting Information. Briefly, PCB52 and its metabolites were extracted from homogenates by liquid–liquid extraction and cleaned by solid-phase extraction with acidified silica gel. PCB52 and metabolites were quantified in the multiple reaction monitoring setting (MRM) on an Agilent 7890 A GC system equipped with an Agilent 7000 Triple Quad and Agilent 7693 autosampler (Agilent Technologies, Santa Clara, CA); see the Supporting Information.
PCB52 and metabolite levels, adjusted for tissue wet weight, are reported as the mean ± standard deviation. Differences in PCB52 and metabolite levels from the GC-MS/MS analysis were analyzed with the Tobit regression model because some measurements are below the detection limit. […]

[2] = Body and organ weights after PCB52 nose-only inhalation; format: in vivo, Sprague–Dawley rats; conditions: for Relative Organ Weights, Brain / Relative Organ Weights, Kidneys / Relative Organ Weights, Liver / Relative Organ Weights, Lung / Relative Organ Weights, Ovaries / Relative Organ Weights, Spleen / Relative Organ Weights, Thymus: Females, mean (standard deviation)
Experimental: as §1

[3] = High exposure group, female, n=6

Q: Which concentration at 4 h ([1]; female, adipose, female, high dose, read-out: PCB or metabolite detected level, Adipose) does the source give for `Clc1ccc(Cl)c(-c2cc(Cl)ccc2Cl)c1` [PCB52, 2,2′,5,5′-tetrachlorobiphenyl] here?
A: 6 ng/g

Q: And the concentration at 4 h ([1]; female, adipose, female, low dose, read-out: PCB or metabolite detected level, Adipose)?
A: 6 ng/g

Q: What about the concentration at 4 h ([1]; female, brain, female, high dose, read-out: PCB or metabolite detected level, Brain) of the same compound?
A: 2 ng/g

Q: And the concentration at 4 h ([1]; female, brain, female, low dose, read-out: PCB or metabolite detected level, Brain)?
A: 2 ng/g

Q: What about the concentration at 4 h ([1]; female, cecum, female, high dose, read-out: PCB or metabolite detected level, Cecum) of the same compound?
A: 1 ng/g

Q: What about the concentration at 4 h ([1]; female, cecum, female, low dose, read-out: PCB or metabolite detected level, Cecum) of the same compound?
A: 1 ng/g

Q: What about the concentration at 4 h ([1]; female, intestinal content, female, high dose, read-out: PCB or metabolite detected level, Intestinal content) of the same compound?
A: 2 ng/g

Q: And the concentration at 4 h ([1]; female, intestinal content, female, low dose, read-out: PCB or metabolite detected level, Intestinal content)?
A: 5 ng/g

Q: And the concentration at 4 h ([1]; female, liver, female, high dose, read-out: PCB or metabolite detected level, Liver)?
A: 7 ng/g

Q: And the concentration at 4 h ([1]; female, liver, female, low dose, read-out: PCB or metabolite detected level, Liver)?
A: 7 ng/g

Q: What about the concentration at 4 h ([1]; female, lung, female, high dose, read-out: PCB or metabolite detected level, Lung) of the same compound?
A: 45 ng/g

Q: What about the concentration at 4 h ([1]; female, lung, female, low dose, read-out: PCB or metabolite detected level, Lung) of the same compound?
A: 41 ng/g

Q: What about the concentration at 4 h ([1]; female, serum, female, high dose, read-out: PCB or metabolite detected level, Serum) of the same compound?
A: 1 ng/g

Q: What about the concentration at 4 h ([1]; female, serum, female, low dose, read-out: PCB or metabolite detected level, Serum) of the same compound?
A: 1 ng/g

Q: And the “general trend of decreasing tissue concentration” value ([1]; irrespective of sex or dose, GC-MS/MS)?
A: lung > liver > adipose > brain ≈ intestinal content ≈ cecum ≈ serum

Q: What about the concentration at 4 h ([1]; male, adipose, male, high dose, read-out: PCB or metabolite detected level, Adipose) of the same compound?
A: 8 ng/g

Q: What about the concentration at 4 h ([1]; male, adipose, male, low dose, read-out: PCB or metabolite detected level, Adipose) of the same compound?
A: 6 ng/g

Q: And the concentration at 4 h ([1]; male, brain, male, high dose, read-out: PCB or metabolite detected level, Brain)?
A: 2 ng/g

Q: What about the concentration at 4 h ([1]; male, brain, male, low dose, read-out: PCB or metabolite detected level, Brain) of the same compound?
A: 1 ng/g

Q: What about the concentration at 4 h ([1]; male, cecum, male, high dose, read-out: PCB or metabolite detected level, Cecum) of the same compound?
A: 2 ng/g

Q: And the concentration at 4 h ([1]; male, cecum, male, low dose, read-out: PCB or metabolite detected level, Cecum)?
A: 1 ng/g

Q: And the concentration at 4 h ([1]; male, intestinal content, male, high dose, read-out: PCB or metabolite detected level, Intestinal content)?
A: 1 ng/g

Q: What about the concentration at 4 h ([1]; male, intestinal content, male, low dose, read-out: PCB or metabolite detected level, Intestinal content) of the same compound?
A: 1 ng/g

Q: And the concentration at 4 h ([1]; male, liver, male, high dose, read-out: PCB or metabolite detected level, Liver)?
A: 10 ng/g

Q: And the concentration at 4 h ([1]; male, liver, male, low dose, read-out: PCB or metabolite detected level, Liver)?
A: 9 ng/g

Q: And the concentration at 4 h ([1]; male, lung, male, high dose, read-out: PCB or metabolite detected level, Lung)?
A: 46 ng/g

Q: What about the concentration at 4 h ([1]; male, lung, male, low dose, read-out: PCB or metabolite detected level, Lung) of the same compound?
A: 50 ng/g

Q: And the concentration at 4 h ([1]; male, serum, male, high dose, read-out: PCB or metabolite detected level, Serum)?
A: 2 ng/g

Q: And the concentration at 4 h ([1]; male, serum, male, low dose, read-out: PCB or metabolite detected level, Serum)?
A: 2 ng/g

Q: What about the “Relative Organ Weights, Brain” value ([2]; High) of the same compound?
A: 0.010 (0.001) g/g BW

Q: And the “Relative Organ Weights, Kidneys” value ([2]; High)?
A: 0.009 (0.001) g/g BW

Q: And the “Relative Organ Weights, Liver” value ([2]; High)?
A: 0.042 (0.003) g/g BW

Q: What about the “Relative Organ Weights, Lung” value ([2]; High) of the same compound?
A: 0.006 (0.001) g/g BW

Q: What about the “Relative Organ Weights, Ovaries” value ([2]; High) of the same compound?
A: 0.003 (0.001) g/g BW

Q: And the “Relative Organ Weights, Spleen” value ([2]; High)?
A: 0.002 (0.001) g/g BW

Q: What about the “Relative Organ Weights, Thymus” value ([2]; High) of the same compound?
A: 0.003 (0.001) g/g BW

Q: And the “Relative Organ Weights, Brain” value ([2]; Low)?
A: 0.010 (0.001) g/g BW

Q: What about the “Relative Organ Weights, Kidneys” value ([2]; Low) of the same compound?
A: 0.009 (0.001) g/g BW

Q: And the “Relative Organ Weights, Liver” value ([2]; Low)?
A: 0.044 (0.002) g/g BW

Q: What about the “Relative Organ Weights, Lung” value ([2]; Low) of the same compound?
A: 0.007 (0.001) g/g BW

Q: And the “Relative Organ Weights, Ovaries” value ([2]; Low)?
A: 0.003 (0.001) g/g BW

Q: And the “Relative Organ Weights, Spleen” value ([2]; Low)?
A: 0.003 (0.001) g/g BW

Q: And the “Relative Organ Weights, Thymus” value ([2]; Low)?
A: 0.003 (0.001) g/g BW

Q: What about the “Adrenal Glands weight” value [2, 3] of the same compound?
A: 0.06 grams

Q: What about the “Body Weight Post Exposure” value [2, 3] of the same compound?
A: 196.92 ± 9.39 grams
